Test results as given in patent US8236820B2, “Anti-inflammatory compounds and uses thereof” (priority 2007, dated 2012).

How the values were obtained:
[1] = tested on: SW480 colon cancer cells; assay: Nude mice xenograft study; type: in vivo; conditions: 50 mg/kg/day gavage, 14 days
Experimental: Nude mice xenograft study: Female nude mice CByJ.Cg-Foxn1 (5-6 weeks-old) were inoculated subcutaneously in their lower right flank with 1.5×10^6 SW480 colon cancer cells in a volume of 100 μl (containing 50% matrigel in PBS). Seven days later, animals were randomized into two groups (8 mice/group): group 1 received vehicle (1% (w/v) carboxy methylcellulose); group 2 received 50 mg/kg/day phospho-sulindac I. All drugs were administered in a solution of 1% (w/v) carboxy methylcellulose by gavage once daily (phospho-sulindac I and sulindac concentrations are equimolar). Tumors were measured twice a week with a digital microcaliper, and tumor volume (TV) was calculated using the formula: TV=[L×W×(L+W/2)×0.56], where L=length and W=width of tumor. After 14 days of treatment, animals were sacrificed, and tumors were removed and weighed.

[2] = tested on: HT-29; assay: DFMO / phospho-sulindac I synergy, cell growth at 48 h, HT-29; type: cell-based, human; conditions: HT-29, 48 h; DFMO 5 mM, phospho-sulindac I 40 μM
Experimental: A—Left panel: Cell viability was determined in HT-29 (full bars) and SW-480 (empty bars) cells after 48 h of incubation with 5 mM DFMO, 40 μM phospho-sulindac (P-S) or simultaneous combination of DFMO and P-S. Data are expressed as percentage of control cells (cells incubated only with DMSO). […] Right panel: In this isobologram the additivity line connects the IC50 value of each compound used alone. A and B represent two different dose pairs of each compound (their respective concentrations are shown in parentheses). The location of both A and B below the additivity line signifies synergy. […] DNA content was determined from propidium iodide (PI) fluorescence. C—Apoptosis and necrosis were determined by combined staining with annexin V and PI and determining fluorescence intensity. The percentages of apoptotic cells were determined using the dual staining with annexin V and propidium iodide and are indicated in each quadrant: left bottom quadrant, viable cells (annexin V-negative/PI-negative); right bottom quadrant, early apoptotic cells (annexin V-positive/PI-negative); right upper quadrant, late apoptotic cells (annexin V-positive/PI-positive); left upper quadrant, necrotic cells (annexin V-negative, PI-positive). […]

[3] = tested on: MDA-MB 231 human breast cancer cells; assay: Cell proliferation assay (BrdU incorporation) in MDA-MB231; type: cell-based; conditions: MDA-MB231, each compound at its IC50 concentration
Text: Cell proliferation assay: To determine cell proliferation, we measured the incorporation of 5-bromo-2′-deoxyuridine (BrdU) into newly synthesized cellular DNA, following the manufacture's instructions (BD Biosciences, San Jose, Calif.).
As summarized in Table 2 below, in MDA-MB231 cells, all six compounds, each used at its IC50 concentration, a) inhibited cell proliferation between 6% and 50% compared to controls; b) induced both early and late apoptosis, as well as necrosis; and c) inhibited the G1 to S cell cycle phase transition. In this Table, the values for proliferation are the percentage of the corresponding control values. Those for apoptosis and necrosis refer to the percentage of cells in each category with respect to the entire cell population, and are to be compared to the control (vehicle only-treated) cells (uppermost row).

[4] = tested on: SW480 cells; assay: Polyamine levels in SW480 cells; type: cell-based, human
Text: Further evidence of the synergy between the two compounds was provided by their effect on polyamine levels. Conventional sulindac is known to reduce polyamine levels in colon cancer cells (Yerushalmi et al. Role of polyamines in arginine-dependent colon carcinogenesis in Apc(Min) (/+) mice. Mol Carcinog 2006; 45(10):764-73.; Choi et al. Combination of 5-fluorouracil and N1,N11-diethylnorspermine markedly activates spermidine/spermine N1-acetyltransferase expression, depletes polyamines, and synergistically induces apoptosis in colon carcinoma cells. J Biol Chem 2005; 280(5):3295-304; and Basuroy and Gerner. Emerging concepts in targeting the polyamine metabolic pathway in epithelial cancer chemoprevention and chemotherapy. J Biochem (Tokyo) 2006; 139(1):27-33).

[5] = tested on: SW480; assay: Cell viability (MTT) assay, 24-h IC50, SW480; type: cell-based, human; conditions: Homo sapiens, SW480, 24 h, read-out: 24-h IC50

CCOP(=O)(OCC)OCCCCOC(=O)CC1=C(C)/C(=C/c2ccc([S+](C)[O-])cc2)c2ccc(F)cc21 (stereo not drawn) [Phospho-sulindac I]
tolerability in xenograft study [1]: no weight loss or other signs of toxicity were observed
mean tumor weight ([1]; mean±SEM, vehicle 0.246±0.041): 0.097±0.018
reduction in tumor weight ([1]; vs vehicle, p<0.05): 60%
reduction in cell number [2]: 41%
Proliferation (% control) [3]: 52 % control
level of putrescine [4]: 91 % of control values
level of spermidine [4]: 34 % of control values
level of spermine [4]: 9 % of control values
IC50 [5]: 98 µM
